This is an account of results in patent US20250353891A1 (MEDIMMUNE LIMITED, priority 2022, published 2025).

Experiment [1] addresses human GLP-1 receptor (hGLP-1R) (Homo sapiens, UniProt P43220). Briefly: cAMP production (HTRF) in CHO cells expressing hGLP-1R. The experiment is classed as cell-based. Set-up: expressed in transfected cells. To be noted: for EC50: Table 6, peptides modified at position 17, cAMP in CHO hGLP-1R cells, geometric mean, read-out: hGLP-1R EC50; for % Relative Potency Ratio: Table 6, % GLP-1R activity relative to GLP-1 / % GlucR activity relative to glucagon. The method in brief: (§1)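 Potency values represent EC50 from 4-parameter logistic curves of HTRF % Delta F signal. Receptor-expressing CHO cells (hGCGR 2×10^5 cells/mL, hGLP-1R 1×10^5 cells/mL) were exposed for 30 min at room temperature before two-step cAMP detection.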

The target in experiment [2] is human glucagon receptor (hGCGR) (Homo sapiens, UniProt P47871). Briefly: cAMP production (HTRF) in CHO cells expressing hGCGR. On the set-up: expressed in transfected cells. The class given is cell-based. To be noted: Table 6, peptides modified at position 17; cAMP in CHO hGCGR cells; geometric mean; read-out: hGluc-R EC50. Summed up:
as §1

Structures are written as SMILES. Starred links: 1 amine or outer side, 2 acyl side, 3 side chain; linkers in the order of their positions; H or OH if unused. Non-standard residues stand in square brackets, D forms with d. Residues, ends and D or L forms follow the SMILES beside them. Groups on a side chain read outwards from the residue. *: point of attachment. Trp(5-Br) = N[C@@H](Cc1c[nH]c2ccc(Br)cc12)C(=O)O; Trp(1-Me) = Cn1cc(C[C@H](N)C(=O)O)c2ccccc21; Bip = N[C@@H](Cc1ccc(-c2ccccc2)cc1)C(=O)O; C18 diacid = O=C(O)CCCCCCCCCCCCCCCCC(=O)*; γGlu = O=C(O)[C@H](CCC(=O)[*:2])N[*:1]; αMeF = C[C@](N)(Cc1ccccc1)C(=O)O; AEEA = NCCOCCOCC(=O)O; Aib = CC(C)(N)C(=O)O

Sequence of human glucagon receptor (hGCGR) (P47871 26-477): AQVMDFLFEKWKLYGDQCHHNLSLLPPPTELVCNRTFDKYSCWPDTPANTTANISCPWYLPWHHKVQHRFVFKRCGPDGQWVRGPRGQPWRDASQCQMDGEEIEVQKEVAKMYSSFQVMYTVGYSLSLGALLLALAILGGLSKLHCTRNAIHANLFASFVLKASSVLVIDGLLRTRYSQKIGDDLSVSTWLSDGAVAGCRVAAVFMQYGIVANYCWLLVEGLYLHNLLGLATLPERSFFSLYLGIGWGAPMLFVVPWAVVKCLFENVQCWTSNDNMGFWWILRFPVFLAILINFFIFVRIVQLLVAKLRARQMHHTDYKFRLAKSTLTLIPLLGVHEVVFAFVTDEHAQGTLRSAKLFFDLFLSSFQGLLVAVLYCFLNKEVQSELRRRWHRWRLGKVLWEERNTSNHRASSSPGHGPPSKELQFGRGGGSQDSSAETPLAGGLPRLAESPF
Sequence of human GLP-1 receptor (hGLP-1R) (P43220 24-463): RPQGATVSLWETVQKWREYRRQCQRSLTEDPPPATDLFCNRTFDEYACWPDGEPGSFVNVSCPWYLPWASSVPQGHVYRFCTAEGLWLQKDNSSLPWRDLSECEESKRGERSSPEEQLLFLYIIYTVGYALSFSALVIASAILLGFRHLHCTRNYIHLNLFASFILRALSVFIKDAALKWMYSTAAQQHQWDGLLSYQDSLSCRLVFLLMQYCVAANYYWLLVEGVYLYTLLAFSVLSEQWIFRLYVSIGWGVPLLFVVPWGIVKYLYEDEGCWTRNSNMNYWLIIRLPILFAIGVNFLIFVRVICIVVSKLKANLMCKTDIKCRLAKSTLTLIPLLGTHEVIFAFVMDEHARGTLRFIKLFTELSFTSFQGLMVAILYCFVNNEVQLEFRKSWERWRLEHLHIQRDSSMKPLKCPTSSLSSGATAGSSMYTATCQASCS

As to `CC(C)C[C@H](NC(=O)[C@H](Cc1c[nH]c2ccccc12)NC(=O)[C@H](CCCNC(=N)N)NC(=O)[C@@H](NC(=O)[C@H](Cc1ccccc1)NC(=O)[C@H](CC(=O)O)NC(=O)[C@H](CCC(N)=O)NC(=O)[C@H](C)NC(=O)[C@H](CCCNC(=N)N)NC(=O)[C@H](CCCCNC(=O)COCCOCCNC(=O)COCCOCCNC(=O)CC[C@H](NC(=O)CCCCCCCCCCCCCCCCC(=O)O)C(=O)O)NC(=O)[C@H](CO)NC(=O)[C@H](CC(=O)O)NC(=O)[C@H](CC(C)C)NC(=O)[C@](C)(Cc1ccccc1)NC(=O)[C@H](CCCCN)NC(=O)[C@H](CO)NC(=O)[C@@H](NC(=O)[C@H](CC(=O)O)NC(=O)[C@H](CO)NC(=O)[C@@H](NC(=O)[C@H](Cc1ccccc1)NC(=O)[C@@H](NC(=O)CNC(=O)[C@H](CCC(N)=O)NC(=O)C(C)(C)NC(=O)[C@@H](N)Cc1c[nH]cn1)[C@@H](C)O)[C@@H](C)O)C(C)C)C(C)C)C(=O)N[C@@H](CCC(=O)O)C(=O)N[C@@H](C)C(=O)NC(C)(C)C(=O)NCC(N)=O` [Peptide 429] (H-H[Aib]QGTFTSDVSK[αMeF]LDSK([AEEA-AEEA-γGlu-C18 diacid])RAQDFVRWLEA[Aib]G-NH2; N-terminus assumed), in experiment [1], the EC50 turned out to be 0.015 nM and the “% Relative Potency Ratio” value is listed as 19.0. Besides, in experiment [2], the EC50 turned out to be 0.144 nM.
`CC(C)C[C@H](NC(=O)[C@H](Cc1c[nH]c2ccccc12)NC(=O)[C@H](CCCNC(=N)N)NC(=O)[C@@H](NC(=O)[C@H](Cc1ccccc1)NC(=O)[C@H](CC(=O)O)NC(=O)[C@H](CCC(N)=O)NC(=O)[C@H](C)NC(=O)[C@H](CCCNC(=N)N)NC(=O)[C@H](CCCCNC(=O)COCCOCCNC(=O)COCCOCCNC(=O)CC[C@H](NC(=O)CC[C@H](NC(=O)CCCCCCCCCCCCCCCCC(=O)O)C(=O)O)C(=O)O)NC(=O)[C@H](CO)NC(=O)[C@H](CC(=O)O)NC(=O)[C@H](CC(C)C)NC(=O)[C@](C)(Cc1ccccc1)NC(=O)[C@H](CCCCN)NC(=O)[C@H](CO)NC(=O)[C@@H](NC(=O)[C@H](CC(=O)O)NC(=O)[C@H](CO)NC(=O)[C@@H](NC(=O)[C@H](Cc1ccccc1)NC(=O)[C@@H](NC(=O)CNC(=O)[C@H](CCC(N)=O)NC(=O)C(C)(C)NC(=O)[C@@H](N)Cc1c[nH]cn1)[C@@H](C)O)[C@@H](C)O)C(C)C)C(C)C)C(=O)N[C@@H](CCC(=O)O)C(=O)N[C@@H](C)C(=O)NC(C)(C)C(=O)NCC(N)=O` [Peptide 430] (H-H[Aib]QGTFTSDVSK[αMeF]LDSK([AEEA-AEEA-γGlu-γGlu-C18 diacid])RAQDFVRWLEA[Aib]G-NH2; N-terminus assumed): in experiment [1], the EC50 amounted to 0.0244 nM and the “% Relative Potency Ratio” value turned out to be 13.0. Moreover, in experiment [2], the half-maximal effective concentration (EC50) is 0.16 nM.
Turning to `CC(C)C[C@H](NC(=O)[C@H](Cc1c[nH]c2ccccc12)NC(=O)[C@H](C)NC(=O)[C@@H](NC(=O)[C@H](Cc1ccccc1)NC(=O)[C@H](CC(=O)O)NC(=O)[C@H](CCC(N)=O)NC(=O)[C@H](C)NC(=O)[C@H](CCCNC(=N)N)NC(=O)[C@H](CCCCNC(=O)COCCOCCNC(=O)COCCOCCNC(=O)CC[C@H](NC(=O)CC[C@H](NC(=O)CCCCCCCCCCCCCCCCC(=O)O)C(=O)O)C(=O)O)NC(=O)[C@@H](NC(=O)[C@H](CC(=O)O)NC(=O)[C@H](CC(C)C)NC(=O)[C@](C)(Cc1ccccc1)NC(=O)[C@H](CCCCN)NC(=O)[C@H](CO)NC(=O)[C@@H](NC(=O)[C@H](CC(=O)O)NC(=O)[C@H](CO)NC(=O)[C@@H](NC(=O)[C@H](Cc1ccccc1)NC(=O)[C@@H](NC(=O)CNC(=O)[C@H](CCC(N)=O)NC(=O)C(C)(C)NC(=O)[C@@H](N)Cc1c[nH]cn1)[C@@H](C)O)[C@@H](C)O)C(C)C)[C@@H](C)O)C(C)C)C(=O)N[C@@H](CCC(=O)O)C(=O)N[C@@H](C)C(=O)NC(C)(C)C(=O)NCC(N)=O` [Peptide 431] (H-H[Aib]QGTFTSDVSK[αMeF]LDTK([AEEA-AEEA-γGlu-γGlu-C18 diacid])RAQDFVAWLEA[Aib]G-NH2; N-terminus assumed), the EC50 in experiment [1] was determined as 0.0446 nM; in experiment [2], 0.194 nM. In experiment [1], the “% Relative Potency Ratio” value was 8.6.
As for `CC(C)C[C@H](NC(=O)[C@H](Cc1ccc(-c2ccccc2)cc1)NC(=O)[C@H](CCCNC(=N)N)NC(=O)[C@@H](NC(=O)[C@H](Cc1ccccc1)NC(=O)[C@H](CC(=O)O)NC(=O)[C@H](CCC(N)=O)NC(=O)[C@H](C)NC(=O)[C@H](CCCNC(=N)N)NC(=O)[C@H](CCCCNC(=O)COCCOCCNC(=O)COCCOCCNC(=O)CC[C@H](NC(=O)CCCCCCCCCCCCCCCCC(=O)O)C(=O)O)NC(=O)[C@H](CO)NC(=O)[C@H](CC(=O)O)NC(=O)[C@H](CC(C)C)NC(=O)[C@](C)(Cc1ccccc1)NC(=O)[C@H](CCCCN)NC(=O)[C@H](CO)NC(=O)[C@@H](NC(=O)[C@H](CC(=O)O)NC(=O)[C@H](CO)NC(=O)[C@@H](NC(=O)[C@H](Cc1ccccc1)NC(=O)[C@@H](NC(=O)CNC(=O)[C@H](CCC(N)=O)NC(=O)C(C)(C)NC(=O)[C@@H](N)Cc1c[nH]cn1)[C@@H](C)O)[C@@H](C)O)C(C)C)C(C)C)C(=O)N[C@@H](CC(C)C)C(=O)NC(C)(C)C(=O)N[C@@H](CCC(=O)O)C(=O)O` [Peptide 432] (H-H[Aib]QGTFTSDVSK[αMeF]LDSK([AEEA-AEEA-γGlu-C18 diacid])RAQDFVR[Bip]LL[Aib]E-OH), the results for the EC50 in experiment [1] and in experiment [2] were 1.38 nM and 1.16 nM, respectively. In addition, in experiment [1], the “% Relative Potency Ratio” value is on record as 1.7.
In the same order, the values of `CC(C)C[C@H](NC(=O)[C@H](Cc1cn(C)c2ccccc12)NC(=O)[C@H](CCCNC(=N)N)NC(=O)[C@@H](NC(=O)[C@H](Cc1ccccc1)NC(=O)[C@H](CC(=O)O)NC(=O)[C@H](CCC(N)=O)NC(=O)[C@H](C)NC(=O)[C@H](CCCNC(=N)N)NC(=O)[C@H](CCCCNC(=O)COCCOCCNC(=O)COCCOCCNC(=O)CC[C@H](NC(=O)CCCCCCCCCCCCCCCCC(=O)O)C(=O)O)NC(=O)[C@H](CO)NC(=O)[C@H](CC(=O)O)NC(=O)[C@H](CC(C)C)NC(=O)[C@](C)(Cc1ccccc1)NC(=O)[C@H](CCCCN)NC(=O)[C@H](CO)NC(=O)[C@@H](NC(=O)[C@H](CC(=O)O)NC(=O)[C@H](CO)NC(=O)[C@@H](NC(=O)[C@H](Cc1ccccc1)NC(=O)[C@@H](NC(=O)CNC(=O)[C@H](CCC(N)=O)NC(=O)C(C)(C)NC(=O)[C@@H](N)Cc1c[nH]cn1)[C@@H](C)O)[C@@H](C)O)C(C)C)C(C)C)C(=O)N[C@@H](CC(C)C)C(=O)NC(C)(C)C(=O)N[C@@H](CCC(=O)O)C(=O)O` [Peptide 433] (H-H[Aib]QGTFTSDVSK[αMeF]LDSK([AEEA-AEEA-γGlu-C18 diacid])RAQDFVR[Trp(1-Me)]LL[Aib]E-OH; N-terminus assumed) are 4.46 nM, 10.5 nM and 4.6.
On the same counts, the results for `CC(C)C[C@H](NC(=O)[C@H](Cc1c[nH]c2ccc(Br)cc12)NC(=O)[C@H](CCCNC(=N)N)NC(=O)[C@@H](NC(=O)[C@H](Cc1ccccc1)NC(=O)[C@H](CC(=O)O)NC(=O)[C@H](CCC(N)=O)NC(=O)[C@H](C)NC(=O)[C@H](CCCNC(=N)N)NC(=O)[C@H](CCCCNC(=O)COCCOCCNC(=O)COCCOCCNC(=O)CC[C@H](NC(=O)CCCCCCCCCCCCCCCCC(=O)O)C(=O)O)NC(=O)[C@H](CO)NC(=O)[C@H](CC(=O)O)NC(=O)[C@H](CC(C)C)NC(=O)[C@](C)(Cc1ccccc1)NC(=O)[C@H](CCCCN)NC(=O)[C@H](CO)NC(=O)[C@@H](NC(=O)[C@H](CC(=O)O)NC(=O)[C@H](CO)NC(=O)[C@@H](NC(=O)[C@H](Cc1ccccc1)NC(=O)[C@@H](NC(=O)CNC(=O)[C@H](CCC(N)=O)NC(=O)C(C)(C)NC(=O)[C@@H](N)Cc1c[nH]cn1)[C@@H](C)O)[C@@H](C)O)C(C)C)C(C)C)C(=O)N[C@@H](CC(C)C)C(=O)NC(C)(C)C(=O)N[C@@H](CCC(=O)O)C(=O)O` [Peptide 434] (H-H[Aib]QGTFTSDVSK[αMeF]LDSK([AEEA-AEEA-γGlu-C18 diacid])RAQDFVR[Trp(5-Br)]LL[Aib]E-OH; N-terminus assumed) are 0.153 nM, 0.294 nM and 3.8.
In the same order, the values of `CC(C)C[C@H](NC(=O)[C@H](CC(C)C)NC(=O)C(C)(C)NC(=O)[C@H](CCC(N)=O)NC(=O)[C@@H](NC(=O)[C@H](Cc1ccccc1)NC(=O)[C@H](CC(=O)O)NC(=O)[C@H](CCCNC(=N)N)NC(=O)[C@H](C)NC(=O)[C@H](CCCNC(=N)N)NC(=O)[C@H](CCCCNC(=O)COCCOCCNC(=O)COCCOCCNC(=O)CC[C@H](NC(=O)CCCCCCCCCCCCCCCCC(=O)O)C(=O)O)NC(=O)[C@@H](NC(=O)[C@H](CC(=O)O)NC(=O)[C@H](CC(C)C)NC(=O)[C@](C)(Cc1ccccc1)NC(=O)[C@H](CCCCN)NC(=O)[C@H](CO)NC(=O)[C@@H](NC(=O)[C@H](CC(=O)O)NC(=O)[C@H](CO)NC(=O)[C@@H](NC(=O)[C@H](Cc1ccccc1)NC(=O)[C@@H](NC(=O)CNC(=O)[C@H](CCC(N)=O)NC(=O)C(C)(C)NC(=O)[C@@H](N)Cc1c[nH]cn1)[C@@H](C)O)[C@@H](C)O)C(C)C)[C@@H](C)O)C(C)C)C(=O)N[C@@H](CCC(=O)O)C(=O)NC(C)(C)C(=O)NCC(=O)O` [Peptide 435] (H-H[Aib]QGTFTSDVSK[αMeF]LDTK([AEEA-AEEA-γGlu-C18 diacid])RARDFVQ[Aib]LLE[Aib]G-OH; N-terminus assumed) are 0.0227 nM, 0.24 nM and 21.0.
